# Measurements: patent US11634397B2, “Process and intermediates for the preparation of Fluensulfone” (ADAMA MAKHTESHIM LTD., priority 2018, dated 2023)
# Assay: Solubility of 2-mercaptothiazole estimated in a variety of solvents at room temperature
# Assay type: physicochemical
# Conditions: stirred overnight
# Procedure: The solubility of 2-mercaptothiazole was estimated in a variety of solvents at room temperature. Large amount of 2-mercaptothiazole was added to the tested solvent. The mixture was stirred overnight. The residual solid was removed by filtration. Then the solution was analyzed by quantitative analysis vs. analytical standard to determine the concentration of the 2-mercaptothiazole.
structure (smiles),measurement,setting,value
Sc1nccs1 [2-mercaptothiazole],Solubility of 2-mercaptothiazole,"solvent 1,2-dichlorobenzene",1.91 wt %
same,Solubility of 2-mercaptothiazole,"solvent 1,2-dichloroethane",8.43 wt %
same,Solubility of 2-mercaptothiazole,solvent CPME (cyclopentyl methyl ether),6.5 wt %
same,Solubility of 2-mercaptothiazole,solvent IBN (iso-butyronitrile),20.2 wt %
same,Solubility of 2-mercaptothiazole,solvent IPAc (isopropyl acetate),14.8 wt %
same,Solubility of 2-mercaptothiazole,solvent MCB (mono-chlorobenzene),2.4 wt %
same,Solubility of 2-mercaptothiazole,solvent NBN (n-butyronitrile),28.9 wt %
same,Solubility of 2-mercaptothiazole,solvent pentanol,19.1 wt %
same,Solubility of 2-mercaptothiazole,solvent toluene,2.2 wt %
